These results are taken from ChEMBL document CHEMBL4610047, “Design, synthesis and anti-Alzheimer's disease activity study of xanthone derivatives based on multi-target strategy” (Bioorg Med Chem Lett, 2020).

Assay [1] has as its target Acetylcholinesterase (Electrophorus electricus, UniProt O42275). In words: Inhibition of electric eel AChE using acetylthiocholine iodide as substrate by Ellman's method. For orientation: In Ellman's method for cholinesterases, released thiocholine reacts with DTNB.
Assay [2] in a line: Metal chelating activity assessed as compound-Cu2+ complex formation by measuring band wavelength at 10 uM in presence of CuCl2 after 30 mins by UV-visible spectrophotometric analysis.
A short description of assay [3]: Metal chelating activity assessed as compound-Cu2+ complex formation by measuring stability constant at 10 uM in presence of CuCl2 after 30 mins by UV-visible spectrophotometric analysis.
The target in assay [4] is Cholinesterase (Equus caballus, UniProt P81908). In words: Inhibition of equine serum BChE using butyrylthiocholine as substrate by Ellman's method.
Cholinesterase, sequence (P81908 whole entry): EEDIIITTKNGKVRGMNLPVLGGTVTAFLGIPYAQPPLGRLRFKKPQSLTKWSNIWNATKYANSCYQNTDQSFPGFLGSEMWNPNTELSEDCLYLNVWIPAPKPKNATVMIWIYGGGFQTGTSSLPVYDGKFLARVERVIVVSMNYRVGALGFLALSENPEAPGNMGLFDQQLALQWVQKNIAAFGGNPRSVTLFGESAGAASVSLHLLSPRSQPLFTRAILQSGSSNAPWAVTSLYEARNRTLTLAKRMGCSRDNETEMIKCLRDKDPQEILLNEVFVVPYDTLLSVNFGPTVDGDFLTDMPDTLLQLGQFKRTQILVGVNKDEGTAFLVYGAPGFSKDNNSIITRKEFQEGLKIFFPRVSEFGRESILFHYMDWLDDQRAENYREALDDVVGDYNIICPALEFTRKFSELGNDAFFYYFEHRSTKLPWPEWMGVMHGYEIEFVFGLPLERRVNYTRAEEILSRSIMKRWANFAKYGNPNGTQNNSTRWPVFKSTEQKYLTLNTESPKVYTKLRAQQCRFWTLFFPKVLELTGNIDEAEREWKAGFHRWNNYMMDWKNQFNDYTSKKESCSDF
Assay [5] is described as follows: Metal chelating activity assessed as compound-Cu2+ complex stoichiometry ratio of 2:1 at 10 uM in presence of CuCl2 after 30 mins by UV-visible spectrophotometric analysis.
Assay [6] concerns the target Acetylcholinesterase (Electrophorus electricus) (UniProt O42275). In words: Mixed type inhibition of electric eel AChE assessed as increase in Km at 0.16 to 0.64 uM by reciprocal Lineweaver-Burk plot analysis.
For assay [7] the target is unchanged. In words: Mixed type inhibition of electric eel AChE assessed as decrease in Vmax at 0.16 to 0.64 uM by reciprocal Lineweaver-Burk plot analysis.

Structures are written as SMILES. pIC50: −log10 of the molar value. The source made the active and inactive calls. No cut-off for these calls is given here.

Acetylcholinesterase, sequence (O42275 whole entry): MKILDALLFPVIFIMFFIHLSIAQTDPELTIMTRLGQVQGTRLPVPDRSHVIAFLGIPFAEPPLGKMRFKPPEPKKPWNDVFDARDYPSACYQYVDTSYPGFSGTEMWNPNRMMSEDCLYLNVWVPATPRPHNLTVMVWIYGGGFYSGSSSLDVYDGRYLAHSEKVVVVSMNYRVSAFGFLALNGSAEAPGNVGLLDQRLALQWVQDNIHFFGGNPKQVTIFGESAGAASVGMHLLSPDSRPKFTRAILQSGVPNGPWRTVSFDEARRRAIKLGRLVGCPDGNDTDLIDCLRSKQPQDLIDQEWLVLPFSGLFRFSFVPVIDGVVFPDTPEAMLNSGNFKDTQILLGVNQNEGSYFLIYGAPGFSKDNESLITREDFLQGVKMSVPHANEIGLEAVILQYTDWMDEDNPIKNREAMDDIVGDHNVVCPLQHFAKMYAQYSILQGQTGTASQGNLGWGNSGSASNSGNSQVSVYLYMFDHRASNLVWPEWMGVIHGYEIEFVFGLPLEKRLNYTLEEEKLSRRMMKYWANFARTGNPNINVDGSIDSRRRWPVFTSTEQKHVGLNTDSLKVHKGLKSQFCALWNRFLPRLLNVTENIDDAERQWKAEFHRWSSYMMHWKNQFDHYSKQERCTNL
Acetylcholinesterase (Electrophorus electricus), sequence (O42275 24-633 limits assumed): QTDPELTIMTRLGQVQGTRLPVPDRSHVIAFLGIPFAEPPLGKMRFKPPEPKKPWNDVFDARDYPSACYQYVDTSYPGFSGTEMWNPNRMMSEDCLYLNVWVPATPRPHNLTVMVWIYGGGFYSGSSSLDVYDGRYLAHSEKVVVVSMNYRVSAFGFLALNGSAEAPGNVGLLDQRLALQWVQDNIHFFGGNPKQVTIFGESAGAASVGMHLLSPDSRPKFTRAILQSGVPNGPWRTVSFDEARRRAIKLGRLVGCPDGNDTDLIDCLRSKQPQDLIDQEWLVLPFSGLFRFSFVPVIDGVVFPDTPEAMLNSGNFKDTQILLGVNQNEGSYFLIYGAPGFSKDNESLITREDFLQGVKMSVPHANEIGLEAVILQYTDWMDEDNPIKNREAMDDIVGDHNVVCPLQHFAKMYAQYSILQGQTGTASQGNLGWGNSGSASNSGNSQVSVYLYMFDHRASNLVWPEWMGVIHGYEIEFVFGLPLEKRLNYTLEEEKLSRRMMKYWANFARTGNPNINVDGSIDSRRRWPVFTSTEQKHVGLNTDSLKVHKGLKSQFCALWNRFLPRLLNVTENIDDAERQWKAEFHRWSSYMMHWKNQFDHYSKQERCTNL

On to `CN(C)CCOc1ccc2c(=O)c3c(O)cc(OCCN(C)C)cc3oc2c1`, for which the pIC50 (as a rule, the IC50 on a negative log10 scale, so that one unit is a factor of ten) was 5.61 in assay [1] and 4.74 in assay [4]. Further, the outcome in assay [2] and in assay [5] was Active. The K in assay [3] amounted to 1.65 ×10⁵ No_unit.

As to `O=c1c2ccc(OCCN3CCCC3)cc2oc2cc(OCCN3CCCC3)cc(O)c12`, the pIC50 in assay [1] was 6.48; in assay [4], 5.43. In addition, the outcome in assay [2] and in assay [5] was Active. The K in assay [3] amounted to 2.67 ×10⁵ No_unit. For the same molecule, the inhibition entry in assay [6] and in assay [7] was “Active” each time.

With `O=c1c2ccc(OCCN3CCCCC3)cc2oc2cc(OCCN3CCCCC3)cc(O)c12`, the pIC50 in assay [1] was 6.02; in assay [4], 5.40. Besides, the outcome in assay [2] and in assay [5] was Active. The K in assay [3] was 2.16 ×10⁵ No_unit.

Take `O=c1c2ccc(OCCN3CCOCC3)cc2oc2cc(OCCN3CCOCC3)cc(O)c12`: the pIC50 was 4.51 in assay [1] and under 3.52 in assay [4]. In addition, the outcome in assay [2] and in assay [5] was Active. For the same molecule, in assay [3], the K was determined as 1.14 ×10⁵ No_unit.
